The structures appear in SMILES notation. A value given as a limit tells only on which side of the number the result lay.

The target in assay [1] is T1, HDAC2 (Homo sapiens, UniProt Q92769). The assay is described as follows: 100-fold jump-dilution experiments. The settings on record: 1 h incubation at 10-fold IC50, then 1:100 dilution.
Procedure: The assay was performed according to a previously published protocol with minor modifications. […] Subsequently, this “incubation mix” was diluted 1:100, and the dissociation of test compounds was monitored continuously.
The enzymes were preincubated with the inhibitor for 1 h before 1:100 dilution. […] The assay was performed in triplicates and repeated at least twice.
Afterward, the “incubation mix” was diluted 100-fold either with assay buffer or the respective inhibitor solution at its original concentration. […] Compounds were tested in triplicates in at least two independent experiments.
Assay [2] has as its target T2, HDAC1 (Homo sapiens, UniProt Q13547). Kind of assay: IC50-shift (preincubation time) experiments.
Procedure: (§1) First, 3-fold serial dilutions of test compounds were prepared in DMSO. […] IC50 values were determined by generating normalized dose–response curves using the three-parameter logistic equation (GraphPad Prism 8.0, San Diego, USA).
(§2) For IC50-shift experiments the preincubation time for the HDAC enzyme inhibition assay was varied. […] Afterward, the assay was continued as described in the HDAC enzyme inhibition assay.
Assay [3] deals with T1, HDAC2. The assay is described as follows: Fluorescence-based biochemical HDAC enzyme inhibition assay (ZMAL substrate). The settings on record: HDAC2 IC50, preincubation of enzyme and inhibitor 1 h at RT; no irradiation.
Procedure: (§3) First, the inhibitory activity and isoform selectivity of compounds and controls (see Figure ) was evaluated in a fluorescence-based biochemical HDAC inhibition assay against recombinant HDAC1, HDAC2, HDAC3, and HDAC6. […] First, 3-fold serial dilutions of test compounds were prepared in DMSO. […] IC50 values were determined by generating normalized dose–response curves using the three-parameter logistic equation (GraphPad Prism 8.0, San Diego, USA).
Assay [4] deals with T2, HDAC1. The description is as above. The settings on record: HDAC1 IC50, preincubation of enzyme and inhibitor 1 h at RT; no irradiation.
Procedure: as §3
The target in assay [5] is T1, HDAC2. The assay is described as follows: IC50-shift (preincubation time) experiments.
Procedure: as §1, §2
The subject of assay [6] is HDAC4–8. The arrangement: method as in number not given. The settings on record: literature value for Cpd-60; ref number not given; cited from earlier work.
The test system of assay [7] is HDAC2. To be noted: literature value for Cpd-60; ref number not given; cited from earlier work.

T2 sequence (Q13547 whole entry): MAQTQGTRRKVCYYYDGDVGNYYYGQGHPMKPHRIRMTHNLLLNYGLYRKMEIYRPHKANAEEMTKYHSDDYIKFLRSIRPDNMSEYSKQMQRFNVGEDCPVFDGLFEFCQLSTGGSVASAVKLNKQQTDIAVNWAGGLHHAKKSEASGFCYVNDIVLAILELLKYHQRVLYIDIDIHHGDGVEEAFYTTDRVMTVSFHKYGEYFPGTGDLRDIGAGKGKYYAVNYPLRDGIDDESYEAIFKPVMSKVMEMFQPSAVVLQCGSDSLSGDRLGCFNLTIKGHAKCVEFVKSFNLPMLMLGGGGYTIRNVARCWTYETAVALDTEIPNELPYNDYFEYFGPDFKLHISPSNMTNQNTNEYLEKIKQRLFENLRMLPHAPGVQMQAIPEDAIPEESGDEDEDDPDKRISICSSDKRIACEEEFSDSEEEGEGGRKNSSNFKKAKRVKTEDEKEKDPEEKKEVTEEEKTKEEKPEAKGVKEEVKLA
T1 sequence (Q92769 whole entry): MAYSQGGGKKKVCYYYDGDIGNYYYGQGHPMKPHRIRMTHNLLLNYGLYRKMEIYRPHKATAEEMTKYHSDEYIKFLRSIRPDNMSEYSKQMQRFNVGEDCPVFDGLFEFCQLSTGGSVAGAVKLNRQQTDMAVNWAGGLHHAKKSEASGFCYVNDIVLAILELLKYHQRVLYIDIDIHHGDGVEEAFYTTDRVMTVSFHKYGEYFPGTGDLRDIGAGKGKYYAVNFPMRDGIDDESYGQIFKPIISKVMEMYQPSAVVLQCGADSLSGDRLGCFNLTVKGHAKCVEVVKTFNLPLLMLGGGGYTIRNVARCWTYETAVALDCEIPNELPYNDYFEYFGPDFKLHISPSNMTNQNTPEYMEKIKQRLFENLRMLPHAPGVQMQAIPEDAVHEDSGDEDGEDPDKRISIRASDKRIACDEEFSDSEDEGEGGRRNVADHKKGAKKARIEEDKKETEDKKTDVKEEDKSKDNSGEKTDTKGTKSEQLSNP

Usually IC50 stands for the concentration that gives 50% inhibition. Turning to `CC(=O)Nc1ccc(C(=O)Nc2cc(-c3ccccc3)ccc2O)cc1` [ST13, 4-Acetamido-N-(4-hydroxy-[1,1′-biphenyl]-3-yl)-benzamide], the “dissociation behavior from HDAC2 upon 100-fold dilution” value in assay [1] is listed as “tight-binding properties”. Besides, the 50% inhibitory concentration (IC50) was 55 ± 7 nM in assay [2] (HDAC1 IC50, preincubation time 5 min); 36 ± 4 nM in assay [2] (HDAC1 IC50, preincubation time 30 min); 34 ± 5 nM in assay [2] (HDAC1 IC50, preincubation time 60 min); 25 ± 3 nM in assay [2] (HDAC1 IC50, preincubation time 120 min); 49 ± 3 nM in assay [3]; 23 ± 4 nM in assay [4]. For the same compound, the IC50 came out at 82 ± 12 nM in assay [5] (HDAC2 IC50, preincubation time 5 min); 83 ± 3 nM in assay [5] (HDAC2 IC50, preincubation time 30 min); 75 ± 5 nM in assay [5] (HDAC2 IC50, preincubation time 60 min); 49 ± 9 nM in assay [5] (HDAC2 IC50, preincubation time 120 min).
For `CC(=O)Nc1ccc(C(=O)Nc2cc(-c3cccs3)ccc2N)cc1` [Cpd-60, reference compound], the concentration for half-maximal inhibition (IC50) in assay [6] was over 10000 nM; in assay [7] it was 49 nM.

These data come from paper PMC12706802, “Ortho-Hydroxyanilides: Slow-Acting, Selective Histone Deacetylase 1/2 Inhibitors Suitable for Photocaging Applications” (ACS Pharmacology & Translational Science, 2025).
